Earlier results on two molecules are cited in EP1072609A2, “Cytoprotective agents comprising prosaposin-related peptides” (Sakanaka, Masahiro, priority 1999, dated 2001).

Ends that are not written are not given here.

Data set [1] deals with neurons in the ischemic penumbra of the cerebral cortex. The following applies: intracerebroventricular infusion.
For data set [2] the following is noted: intravenous administration.

With `CC(C)=CCC[C@](C)(O[C@@H]1O[C@H](CO[C@@H]2O[C@H](CO)[C@@H](O)[C@H](O)[C@H]2O)[C@@H](O)[C@H](O)[C@H]1O)[C@H]1CC[C@]2(C)[C@@H]1[C@H](O)C[C@@H]1[C@@]3(C)CC[C@H](O[C@@H]4O[C@H](CO)[C@@H](O)[C@H](O)[C@H]4O[C@@H]4O[C@H](CO)[C@@H](O)[C@H](O)[C@H]4O)C(C)(C)[C@@H]3CC[C@]12C` [ginsenoside Rb1], in the data set on Bcl-xL, the “expression of Bcl-xL” value is reported as “stimulates”. In data set [1], the cortical infarction result is “ameliorate” and the place navigation disability entry is listed as “ameliorate”.
For the molecule LSELIINNATEELLIKGL [18-MP], in data set [2], the “share of intravenously administered peptide transferred into the brain” value is reported as “approximately 0.03%”.
